These are literature values, as cited in patent US20210212952A1, “METHOD AND ENCAPSULATED SUBSTANCE FOR TREATING PAIN DUE TO A VARIETY OF DISEASES” (priority 2020, published 2021).

For the data set the following is noted: in vivo, po.

Take `O=C1CC[C@@]2(O)[C@H]3Cc4ccc(O)c5c4[C@@]2(CCN3CC2CC2)[C@H]1O5` [Naltrexone, naltrexone]: the “absorbed into the blood stream” value is listed as 96%.
